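Exposure lasted 48 hours, with cells grown in 96-well plates and compounds tested at five concentrations. GI50 is the concentration that inhibits growth by half.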 Calls of active or inactive are those of the source. Rule as the data show it: active = GI50 up to about 1.1 µM and inactive = higher.
Legend:
Assay in all cases: NCI-60 cell line screen, 48 h
[1] = tested on: K562
[2] = tested on: SR
[3] = tested on: OVCAR-3
[4] = tested on: XF498
[5] = tested on: SK-MEL-2
[6] = tested on: SN12C
[7] = tested on: NCI-H460
[8] = tested on: TK-10
[9] = tested on: CAKI-1
[10] = tested on: HOP-18
[11] = tested on: A549
[12] = tested on: KM-20L2
[13] = tested on: HCT-116
[14] = tested on: RXF 631
[15] = tested on: Malme-3M
[16] = tested on: HCT-15
[17] = tested on: U-251
[18] = tested on: NCI-H23
[19] = tested on: UO-31
[20] = tested on: NCI-H226
[21] = tested on: SF-539
[22] = tested on: RXF 393
[23] = tested on: RPMI-8226
[24] = tested on: KM12
[25] = tested on: SNB-78
[26] = tested on: COLO 205
[27] = tested on: DMS-273
[28] = tested on: UACC-62
[29] = tested on: MOLT-4
[30] = tested on: M14
[31] = tested on: HT-29
[32] = tested on: SK-OV-3
[33] = tested on: EKVX
[34] = tested on: M19-MEL
[35] = tested on: SNB-19
[36] = tested on: IGROV-1
[37] = tested on: OVCAR-4
[38] = tested on: LOX IMVI
[39] = tested on: HOP-62
[40] = tested on: SF-295
[41] = tested on: HOP-92
[42] = tested on: SK-MEL-5
[43] = tested on: ACHN
[44] = tested on: A498
[45] = tested on: UACC-257
[46] = tested on: NCI-H522
[47] = tested on: OVCAR-8
[48] = tested on: SF-268
[49] = tested on: SK-MEL-28
[50] = tested on: LXFL 529
[51] = tested on: HCC 2998
[52] = tested on: SNB-75
[53] = tested on: CCRF-CEM
[54] = tested on: HL-60
[55] = tested on: 786-0
[56] = tested on: DMS-114
[57] = tested on: OVCAR-5
[58] = tested on: DLD-1

CCOc1ccc2nc(NC(=O)C(=O)C(C#N)CC(C)(C)C=O)sc2c1 (stereo not drawn)
GI50 [1]: 52.7 µM (inactive)
GI50 [2]: 21 µM (inactive)
GI50 [3]: > 100 µM (inactive)
GI50 [4]: > 100 µM (inactive)
GI50 [5]: > 100 µM (inactive)
GI50 [6]: > 100 µM (inactive)
GI50 [7]: > 100 µM (inactive)
GI50 [8]: > 100 µM (inactive)
GI50 [9]: > 100 µM (inactive)
GI50 [10]: > 100 µM (inactive)
GI50 [11]: > 100 µM (inactive)
GI50 [12]: > 100 µM (inactive)
GI50 [13]: > 100 µM (inactive)
GI50 [14]: > 100 µM (inactive)
GI50 [15]: > 100 µM (inactive)
GI50 [16]: 43.9 µM
GI50 [17]: > 100 µM (inactive)
GI50 [18]: > 100 µM (inactive)
GI50 [19]: > 100 µM (inactive)
GI50 [20]: > 100 µM (inactive)
GI50 [21]: 75.7 µM (inactive)
GI50 [22]: > 100 µM (inactive)
GI50 [23]: 75.3 µM (inactive)
GI50 [24]: > 100 µM (inactive)
GI50 [25]: > 100 µM (inactive)
GI50 [26]: > 100 µM (inactive)
GI50 [27]: 18.7 µM (inactive)
GI50 [28]: > 100 µM (inactive)
GI50 [29]: > 100 µM (inactive)
GI50 [30]: > 100 µM (inactive)
GI50 [31]: > 100 µM (inactive)
GI50 [32]: > 100 µM (inactive)
GI50 [33]: > 100 µM (inactive)
GI50 [34]: 61.2 µM (inactive)
GI50 [35]: > 100 µM (inactive)
GI50 [36]: > 100 µM (inactive)
GI50 [37]: > 100 µM (inactive)
GI50 [38]: 44.2 µM (inactive)
GI50 [39]: > 100 µM (inactive)
GI50 [40]: > 100 µM (inactive)
GI50 [41]: > 100 µM (inactive)
GI50 [42]: > 100 µM (inactive)
GI50 [43]: > 100 µM (inactive)
GI50 [44]: > 100 µM (inactive)
GI50 [45]: > 100 µM (inactive)
GI50 [46]: 49.9 µM (inactive)
GI50 [47]: > 100 µM (inactive)
GI50 [48]: > 100 µM (inactive)
GI50 [49]: > 100 µM (inactive)
GI50 [50]: > 100 µM (inactive)
GI50 [51]: > 100 µM (inactive)
GI50 [52]: > 100 µM (inactive)
GI50 [53]: 26.9 µM (inactive)
GI50 [54]: > 100 µM (inactive)
GI50 [55]: > 100 µM (inactive)
GI50 [56]: 35.6 µM (inactive)
GI50 [57]: > 100 µM (inactive)
GI50 [58]: > 100 µM (inactive)

— ChEMBL document CHEMBL1201862, “PubChem BioAssay data set” (2004)
